US20150105252A1, “SUBSTITUTED PYRAZOLES AS HERBICIDES” (E I DU PONT DE NEMOURS AND COMPANY, priority 2013, published 2015)

How the values were obtained:
waterhemp = assay: Test C postemergence; format: in vivo, Amaranthus rudis; conditions: for Plant response rating (scale of 0 to 100 where 0 is no effect and 100 is complete control), Waterhemp: Postemergence, 31 g ai/ha, visually evaluated after 13 to 15 days; for Waterhemp plant response rating / Plant response rating, Waterhemp: postemergence; for Waterhemp plant response rating: scale 0 to 100
Summary of the method: (§1)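 Pre- and postemergence greenhouse screen; vehicle was a non-phytotoxic solvent mix with surfactant. Preemergence: treatment applied right after sowing into loam and sand. Postemergence: treated at 1–4 leaves. Visual rating at 13–15 days, 100 = complete control.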

ryegrass, Italian = assay: Test C preemergence; format: in vivo, Lolium multiflorum; conditions: for Plant response rating (scale of 0 to 100), Ryegrass, Italian: Preemergence; for Ryegrass, Italian plant response rating / Plant response rating, Ryegrass, Italian: preemergence; for Plant response rating, Ryegrass, Italian: 125 g ai/ha, scale 0 to 100, 0 = no effect, 100 = complete control
Summary of the method: as §1

corn = assay: Test C postemergence; format: in vivo, Zea mays; conditions: for Plant response rating (scale of 0 to 100 where 0 is no effect and 100 is complete control), Corn: Postemergence, 31 g ai/ha, visually evaluated after 13 to 15 days; for Corn plant response rating / Plant response rating, Corn: postemergence; for Corn plant response rating: 62 g ai/ha, scale 0 to 100
Summary of the method: as §1

ragweed = assay: Test C postemergence; format: in vivo, Ambrosia elation; conditions: for Plant response rating (scale of 0 to 100 where 0 is no effect and 100 is complete control), Ragweed: Postemergence, 31 g ai/ha, visually evaluated after 13 to 15 days; for Ragweed plant response rating / Plant response rating, Ragweed: postemergence; for Ragweed plant response rating: 62 g ai/ha, scale 0 to 100
Summary of the method: as §1

ducksalad = assay: Test B flood; format: in vivo, Heteranthera limosa; conditions: 250 g ai/ha, visual rating on 0 to 100 scale (0 no effect, 100 complete control), 13 to 15 days
Summary of the method: (§2)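 Greenhouse assay lasting 13 to 15 days. Treatment was into water flooding pots 3 cm deep, at the 2-leaf stage, with that level sustained afterwards. Scores compare treated with control plants visually, 100 denoting complete control and 0 no effect; a dash marks no test result.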

foxtail, giant = assay: Test A postemergence; format: in vivo, Setaria faberii
Summary of the method: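 Both timings tested concurrently in loam/sand soil: preemergence by directed soil spray, postemergence on plants of 2–10 cm at the one- to two-leaf stage. Greenhouse holding period was approximately 10 days before visual injury assessment (0–100, 0 = no effect).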

barnyardgrass = assay: Test B flood; format: in vivo, Echinochloa crus-galli; conditions: 250 g ai/ha, visual rating on 0 to 100 scale (0 no effect, 100 complete control), 13 to 15 days
Summary of the method: as §2

galium = assay: Test C postemergence; format: in vivo, Galium aparine; conditions: for Plant response rating (scale of 0 to 100 where 0 is no effect and 100 is complete control), Galium: Postemergence, 31 g ai/ha, visually evaluated after 13 to 15 days; for Galium plant response rating / Plant response rating, Galium: postemergence; for Galium plant response rating: 62 g ai/ha, scale 0 to 100
Summary of the method: as §1

sedge, umbrella = assay: Test B flood; format: in vivo, Cyperus difformis; conditions: 250 g ai/ha, visual rating on 0 to 100 scale (0 no effect, 100 complete control), 13 to 15 days
Summary of the method: as §2

pigweed = assay: Test C postemergence; format: in vivo, Amaranthus retroflexus; conditions: for Plant response rating (scale of 0 to 100 where 0 is no effect and 100 is complete control), Pigweed: Postemergence, 31 g ai/ha, visually evaluated after 13 to 15 days; for Pigweed plant response rating / Plant response rating, Pigweed: postemergence; for Pigweed plant response rating: 62 g ai/ha, scale 0 to 100
Summary of the method: as §1

morningglory = assay: Test C postemergence; format: in vivo, Ipomoea coccinea; conditions: for Plant response rating (scale of 0 to 100 where 0 is no effect and 100 is complete control), Morningglory: Postemergence, 31 g ai/ha, visually evaluated after 13 to 15 days; for Morningglory plant response rating / Plant response rating, Morningglory: postemergence; for Morningglory plant response rating: 62 g ai/ha, scale 0 to 100
Summary of the method: as §1

[1] = 250 g ai/ha, scale 0 to 100 (0 no effect, 100 complete control)
[2] = 125 g ai/ha, scale 0 to 100, 0 no effect, 100 complete control
[3] = 31 g ai/ha, visual rating, scale 0 to 100 (0 no effect, 100 complete control), 13 to 15 days
[4] = 62 g ai/ha, scale 0 to 100 (0 no effect, 100 complete control), 13 to 15 days
[5] = Postemergence, 500 g ai/ha, 0 to 100 scale (0 no effect, 100 complete control)
[6] = postemergence, 125 g ai/ha, about 10 days, visual rating on 0 to 100 scale (0 no effect, 100 complete control)
[7] = 250 g ai/ha, scale 0 to 100, 0 is no effect, 100 is complete control

| Compound | Plant response rating, Waterhemp (waterhemp; [1]) | Ryegrass, Italian plant response rating (ryegrass, Italian; [3]) | Ryegrass, Italian plant response rating (ryegrass, Italian; [4]) | Plant response rating, Ryegrass, Italian (ryegrass, Italian; 13 to 15 days) | Plant response rating (scale of 0 to 100 where 0 is no effect and 100 is complete control), Corn (corn) | Corn plant response rating (corn) | Plant response rating, Corn (corn; [1]) | Plant response rating, Corn (corn; [2]) | Plant response rating, Ragweed (ragweed; [1]) | Plant response rating, Ragweed (ragweed; [2]) | Plant response rating, Ducksalad (ducksalad) | Foxtail, Giant plant response rating (foxtail, giant; [5]) | Foxtail, Giant plant response rating (foxtail, giant; [6]) | Plant response rating, Barnyardgrass (barnyardgrass) | Plant response rating (scale of 0 to 100 where 0 is no effect and 100 is complete control), Galium (galium) | Galium plant response rating (galium) | Plant response rating, Galium (galium; [1]) | Plant response rating, Galium (galium; [2]) | Plant response rating, Sedge, Umbrella (sedge, umbrella) | Pigweed plant response rating (pigweed) | other results |
| --- | --- | --- | --- | --- | --- | --- | --- | --- | --- | --- | --- | --- | --- | --- | --- | --- | --- | --- | --- | --- | --- |
| CCCc1cc(C(=O)NCC(F)(F)F)nn1Cc1ccnc(OC(F)F)c1 [Compound 127] | 70 | 25 | 60 | 80 | 5 | 5 | 25 | 10 | 60 | 50 | 95 | 90 | 90 | 70 | 70 | 70 | 80 | 70 | 85 | 70 | Plant response rating (scale of 0 to 100 where 0 is no effect and 100 is complete control), Waterhemp (waterhemp): 50; Waterhemp plant response rating (waterhemp; 62 g ai/ha): 65; Plant response rating, Waterhemp (waterhemp; [2]): 70; Plant response rating (scale of 0 to 100), Ryegrass, Italian (ryegrass, Italian; 250 g ai/ha): 80; Plant response rating (scale of 0 to 100 where 0 is no effect and 100 is complete control), Ragweed (ragweed): 30; Ragweed plant response rating (ragweed): 20; Plant response rating (scale of 0 to 100 where 0 is no effect and 100 is complete control), Pigweed (pigweed): 35; Plant response rating, Pigweed (pigweed; [1]): 85; Plant response rating, Pigweed (pigweed; [2]): 75; Plant response rating (scale of 0 to 100 where 0 is no effect and 100 is complete control), Morningglory (morningglory): 65; Morningglory plant response rating (morningglory): 70; Plant response rating, Morningglory (morningglory; [1]): 85; Plant response rating, Morningglory (morningglory; [2]): 60 |
| CCOc1cc(C(=O)NCC(F)(F)F)nn1Cc1ccnc(OC(F)F)c1 [Compound 128] | 95 | 5 | 70 | 90 | 5 | 5 | 30 | 10 | 85 | 85 | 95 | 100 | 100 | 70 | 60 | 65 | 70 | 80 | 90 | 70 | Plant response rating (scale of 0 to 100 where 0 is no effect and 100 is complete control), Waterhemp (waterhemp): 60; Waterhemp plant response rating (waterhemp; 62 g ai/ha): 65; Plant response rating, Waterhemp (waterhemp; [2]): 70; Plant response rating (scale of 0 to 100), Ryegrass, Italian (ryegrass, Italian; 250 g ai/ha): 95; Plant response rating (scale of 0 to 100 where 0 is no effect and 100 is complete control), Ragweed (ragweed): 50; Ragweed plant response rating (ragweed): 40; Plant response rating (scale of 0 to 100 where 0 is no effect and 100 is complete control), Pigweed (pigweed): 65; Plant response rating, Pigweed (pigweed; [1]): 90; Plant response rating, Pigweed (pigweed; [2]): 65; Plant response rating (scale of 0 to 100 where 0 is no effect and 100 is complete control), Morningglory (morningglory): 75; Morningglory plant response rating (morningglory): 65; Plant response rating, Morningglory (morningglory; [1]): 80; Plant response rating, Morningglory (morningglory; [2]): 45 |
| CCCNC(=O)c1cc(OCC)n(Cc2ccnc(OC(F)F)c2)n1 [Compound 136] | 90 | 55 | 90 | 95 | 10 | 10 | 25 | 15 | 70 | 40 | 80 | 100 | 90 | 50 | 60 | 60 | 80 | 60 | 80 | 65 | Plant response rating (scale of 0 to 100 where 0 is no effect and 100 is complete control), Waterhemp (waterhemp): 60; Waterhemp plant response rating (waterhemp; 62 g ai/ha): 70; Plant response rating, Waterhemp (waterhemp; [2]): 75; Ryegrass, Italian plant response rating (ryegrass, Italian; [7]): 95; Plant response rating (scale of 0 to 100 where 0 is no effect and 100 is complete control), Ragweed (ragweed): 15; Ragweed plant response rating (ragweed): 35; Plant response rating (scale of 0 to 100 where 0 is no effect and 100 is complete control), Pigweed (pigweed): 40; Plant response rating, Pigweed (pigweed; [1]): 80; Plant response rating, Pigweed (pigweed; [2]): 70; Plant response rating (scale of 0 to 100 where 0 is no effect and 100 is complete control), Morningglory (morningglory): 90; Morningglory plant response rating (morningglory): 98; Plant response rating, Morningglory (morningglory; [1]): 100; Plant response rating, Morningglory (morningglory; [2]): 95 |
| CCCc1cc(C(=O)NC2CC2)nn1Cc1ccnc(OC(F)F)c1 [Compound 205] | 85 | 60 | 70 | 90 | 10 | 10 | 40 | 20 | 80 | 60 | 100 | 90 | 90 | 50 | 65 | 80 | 80 | 80 | 100 | 85 | Waterhemp plant response rating (waterhemp): 70; Ryegrass, Italian plant response rating (ryegrass, Italian; [7]): 95; Plant response rating, Pigweed (pigweed; [1]): 100; Plant response rating, Pigweed (pigweed; [2]): 85; Plant response rating (scale of 0 to 100 where 0 is no effect and 100 is complete control), Morningglory (morningglory): 65; Morningglory plant response rating (morningglory): 70; Plant response rating, Morningglory (morningglory; [1]): 95; Plant response rating, Morningglory (morningglory; [2]): 80 |
